Measurements published in patent US7897598B2, “Inhibitors of the anandamide transporter” (priority 1998, dated 2011).
“And” between values parts separate entries of the source, which are not always exact repeats. Equal values may be shown once. Read-outs that look alike come from different tables or passages of the source.

What was measured:
[1] = tested on: anandamide transporter
[2] = tested on: adenylyl cyclase activity; experiment: cAMP concentrations (adenylyl cyclase activity) in forskolin-stimulated cortical neurons; assay type: cell-based, rat
[3] = tested on: anandamide transporter; experiment: [3H]anandamide transport assay, inhibition in astrocytoma cells; details: for IC50: read-out: IC50, [3H]anandamide accumulation
[4] = molecular target: CB1 receptors (Homo sapiens, UniProt P21554); experiment: Binding to CB1 receptors
[5] = tested on: male Swiss mice; details: mouse, in vivo
[6] = tested on: anandamide transporter; experiment: [3H]anandamide accumulation in cortical astrocytes in culture; assay type: cell-based, rat
[7] = tested on: anandamide transporter; experiment: Transport (translocation) of radioactively labeled substrates into astrocytoma cells; assay type: cell-based, human; details: radioactively labeled compound, FIG. 4 and FIG. 5
[8] = molecular target: T1, fatty acid amide hydrolase (FAAH) (Rattus norvegicus, UniProt P97612); experiment: FAAH activity in brain microsomes; assay type: biochemical
T1 construct: from tissue; host or cells: brain microsomes
T1 sequence (P97612 1-579): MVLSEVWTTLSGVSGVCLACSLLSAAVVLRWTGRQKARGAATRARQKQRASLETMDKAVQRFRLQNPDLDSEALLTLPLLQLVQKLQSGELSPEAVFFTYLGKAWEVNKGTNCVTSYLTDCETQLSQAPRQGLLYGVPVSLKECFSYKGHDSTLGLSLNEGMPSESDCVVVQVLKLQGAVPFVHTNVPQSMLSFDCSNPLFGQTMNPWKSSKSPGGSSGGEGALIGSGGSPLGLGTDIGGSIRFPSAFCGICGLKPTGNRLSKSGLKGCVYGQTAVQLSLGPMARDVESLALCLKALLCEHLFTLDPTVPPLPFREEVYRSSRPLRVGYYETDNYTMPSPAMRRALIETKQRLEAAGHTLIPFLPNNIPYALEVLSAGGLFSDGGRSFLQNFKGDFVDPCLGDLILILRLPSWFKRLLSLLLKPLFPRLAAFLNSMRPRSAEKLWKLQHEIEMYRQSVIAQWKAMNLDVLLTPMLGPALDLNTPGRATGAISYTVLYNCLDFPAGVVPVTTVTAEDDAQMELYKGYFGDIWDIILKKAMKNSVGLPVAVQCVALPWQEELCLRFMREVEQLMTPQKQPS

[9] = tested on: anandamide transporter; experiment: [3H]anandamide accumulation in neurons; assay type: cell-based, rat
[10] = molecular target: rat cerebral membranes ([3H]WIN-55212-2 binding) (Rattus norvegicus, UniProt P20272); experiment: Binding of [3H]WIN-55212-2 to rat cerebral membranes
Sequence of rat cerebral membranes ([3H]WIN-55212-2 binding) (P20272 whole entry): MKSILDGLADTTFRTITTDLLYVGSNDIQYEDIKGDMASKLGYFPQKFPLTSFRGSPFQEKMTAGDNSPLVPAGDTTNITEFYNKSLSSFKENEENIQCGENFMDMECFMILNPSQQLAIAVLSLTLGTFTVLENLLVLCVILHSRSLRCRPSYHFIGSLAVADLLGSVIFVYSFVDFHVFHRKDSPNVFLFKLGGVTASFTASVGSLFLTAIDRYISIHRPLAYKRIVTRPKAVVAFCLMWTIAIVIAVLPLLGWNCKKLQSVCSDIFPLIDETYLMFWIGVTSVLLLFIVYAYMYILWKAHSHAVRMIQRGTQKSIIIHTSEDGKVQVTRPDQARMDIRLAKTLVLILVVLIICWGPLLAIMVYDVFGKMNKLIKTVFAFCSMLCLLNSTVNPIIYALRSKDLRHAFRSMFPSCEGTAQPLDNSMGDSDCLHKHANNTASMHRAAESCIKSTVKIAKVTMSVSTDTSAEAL

Sequence of CB1 receptors (P21554 whole entry): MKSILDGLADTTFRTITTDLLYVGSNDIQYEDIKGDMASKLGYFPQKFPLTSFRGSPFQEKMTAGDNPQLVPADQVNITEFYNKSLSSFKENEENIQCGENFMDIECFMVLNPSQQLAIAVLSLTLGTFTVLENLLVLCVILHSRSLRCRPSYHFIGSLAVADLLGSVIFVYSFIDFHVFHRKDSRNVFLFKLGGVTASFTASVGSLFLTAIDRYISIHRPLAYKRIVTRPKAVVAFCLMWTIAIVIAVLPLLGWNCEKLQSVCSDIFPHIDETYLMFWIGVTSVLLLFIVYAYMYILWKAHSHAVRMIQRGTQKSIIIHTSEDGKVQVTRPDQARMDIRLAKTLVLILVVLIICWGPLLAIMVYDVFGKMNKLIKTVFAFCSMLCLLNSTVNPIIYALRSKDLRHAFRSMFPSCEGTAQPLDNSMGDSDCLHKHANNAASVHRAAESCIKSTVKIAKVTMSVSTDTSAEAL

CCCCC/C=C\C/C=C\C/C=C\CCCCCCC(=O)NCCO
IC50 [1]: 13 ± 3.6 µM

CCCCCCCC/C=C\CCCCCCCCCC(=O)NCCO
IC50 [1]: 14.1 ± 1.2 µM

CCCCCC=CCC=CCC=CCC=CCCCC(=O)NCC
IC50 [1]: 48.5 ± 7.3 µM

CCCCCC=CCC=CCC=CCC=CCCCC(N)=O
IC50 [1]: 9 ± 2 µM

CCCCCC=CCC=CCC=CCC=CCCCC(=O)OC(CO)CO
IC50 [1]: 18.5 ± 0.7 µM

CCCCCC=CCC=CCC=CCC=CCCCC(=O)OCC(O)CO (centres unmarked)
IC50 [1]: 48.5 ± 8.1 µM

CCCCCC=CCC=CCC=CCC=CCCCC(=O)N1CCOCC1
IC50 [1]: 25 µM

CCCCCC=CCC=CCC=CCC=CCCCC(=O)N1CCC(O)CC1
IC50 [1]: 10 ± 0.2 µM

CCCCCC=CCC=CCC=CCC=CCCCC(=O)N1CCCC(O)C1 (centres unmarked)
IC50 [1]: 15 µM

CCCCCC=CCC=CCC=CCC=CCCCC(=O)N1CCC(O)C1 (centres unmarked)
IC50 [1]: 15.3 ± 3 µM

CCCCCC=CCC=CCC=CCC=CCCC(C)(C)C(=O)NCCO
IC50 [1]: 7.6 ± 1.2 µM

CCCCC/C=C\C/C=C\C/C=C\C/C=C\CCCC(=O)Nc1cccc(O)c1 [AM403, N-(3-hydroxyphenyl)-arachidonamide]
cAMP, % of forskolin alone [2]: 92.4±2.3%
enhancement of the anandamide response on cAMP (in words) [2]: less effective
times less effective than N-(4-hydroxyphenyl)-arachidonamide ([3]; human astrocytoma cells, ratio of IC50): 10 times
IC50 ([3]; human astrocytoma cells): 21.3 ± 3.4 µM

CCCCC/C=C\C/C=C\C/C=C\C/C=C\CCCC(=O)Nc1ccc(O)cc1 [AM404, N-(4-hydroxyphenyl)-arachidonamide]
Ki [4]: 1.8 µM
cAMP, % of forskolin alone [2]: 89.8±2.6% and 84.4±4.9%
decrease of anandamide threshold, factor [2]: 1.100
effect on cAMP concentrations when applied alone [2]: did not reduce cAMP concentrations
enhancement of the anandamide response on cAMP (in words) [2]: almost maximal effect
increase of anandamide potency, factor [2]: 10
competition with [3H]anandamide for transport / uptake inhibition (in words) [3]: the most potent competitor in our series
IC50 ([3]; human astrocytoma cells): 2.2 ± 0.2 µM
antinociceptive effect alone (in words) [5]: no antinociceptive effect
effect on anandamide-induced analgesia (in words) [5]: significantly enhanced and prolonged

CCCCC[C@H](O)/C=C/[C@H]1[C@H](O)CC(=O)[C@@H]1C/C=C\CCCC(=O)O [PGE2, prostaglandin E2]
effect on [3H]anandamide accumulation (in words) [6]: inability

Cc1c(C(=O)c2cccc3ccccc23)c2cccc3c2n1[C@H](CN1CCOCC1)CO3 [WIN-55212-2, reference compound]
effect on [3H]anandamide accumulation (in words) [6]: no effect
cAMP, % of forskolin alone [2]: 96.7±2.5%

CCCCC/C=C\C/C=C\C/C=C\C/C=C\CCCC(=O)NCCO [anandamide, Arachidonyl ethanolamide]
IC50 [1]: 15.1 ± 3 µM
latency to jump [5]: 30.7 ± 0.8 s
time after injection at which analgesia disappeared [5]: 60 min

CCCCC/C=C\C/C=C\C/C=C\C/C=C\CCCC(N)=O [arachidonamide]
competition with [3H]anandamide for transport / uptake inhibition (in words) [3]: compete with anandamide for uptake
transport into cells (substrate translocation, in words) [7]: effectively transported into cells

Cc1c(C2(c3cc(Br)c(O)c(Br)c3C)OS(=O)(=O)c3ccccc32)cc(Br)c(O)c1Br [bromcresol green]
mode of inhibition of [3H]anandamide accumulation [6]: noncompetitively
IC50 ([6]; astrocytes): 12 µM
cAMP, % of forskolin alone ([2]; 10 μM inhibitor in the presence of WIN-55212-2 1 nM, n=3): 92.9±2.3%
enhancement of the anandamide response on cAMP (in words) ([2]; anandamide 0.3 μM, inhibitors 10 μM, SR-141716-A 1 μM): less effective
cAMP, % of forskolin alone ([2]; inhibitor in the presence of glutamate 3 μM, n=3): 84.4±3%
effect on FAAH activity [8]: no significant effect
IC50 [9]: 4 µM
effect on binding of [3H]WIN-55212-2 [10]: no significant effect

CCCCCCCC/C=C\CCCCCCCC(=O)NCCO [drawing 6]
IC50 [1]: 10.5 ± 1.2 µM

CCCCCC=CCC=CCC=CCC=CCCCC(=O)NC(C)CO (centres unmarked) [drawing 12]
IC50 [1]: 37.7 ± 0.7 µM

CCCCCC=CCC=CCC=CCC=CCCCC(=O)NC(C)CO (centres unmarked) [drawing 13]
IC50 [1]: 10.4 ± 1.2 µM

CCCCCC=CCC=CCC=CCC=CCCC(C)(C)C(=O)NCC(C)O (centres unmarked) [drawing 21]
IC50 [1]: 33.2 ± 4.2 µM

CCCCCC=CCC=CCC=CCC=CCCC(C)(C)C(=O)NCC(C)O (centres unmarked) [drawing 22]
IC50 [1]: 16.5 ± 1 µM

N[C@@H](CCC(=O)O)C(=O)O [glutamate, reference compound]
cAMP, % of forskolin alone [2]: 91.6±2%

CCCCCCCC/C=C\CCCCCCCC(=O)NCCO [oleylethanolamide]
transport into cells (substrate translocation, in words) [7]: not transported at all

CCCCCCCCCCCCCCCC(=O)NCCO [palmitoyl ethanolamide, reference compound]
effect on [3H]anandamide accumulation (in words) ([6]; cortical astrocytes, WIN-55212-2 1 μM, SR-141716-A 10 μM): not
transport into cells (substrate translocation, in words) [7]: not transported to any significant extent

cis-eicosadienoylethanolamide
transport into cells (substrate translocation, in words) [7]: transported very slowly

cis-eicosaenoylethanoladide
transport into cells (substrate translocation, in words) [7]: not transported at all

cis-eicosatrienoylethanolamide
transport into cells (substrate translocation, in words) [7]: transported very slowly
